# Test results as given in patent publication US20250082674A1, “METHODS OF TREATING COPPER METABOLISM-ASSOCIATED DISEASES OR DISORDERS” (priority 2021, published 2025).
# Like-named read-outs stand apart in the source and are kept apart here.
# Legend:
# [1] = Excerpt: Adverse events were reported by the patient (or, when appropriate, by a caregiver, surrogate, or the patient's legally authorized representative). The Investigator and any qualified designees were responsible for detecting, documenting, and recording events that meet the definition of an AE or SAE and remain responsible for following up AEs that were serious, considered related to the study intervention or study procedures, or that caused the patient to discontinue the study.
# Acute worsening of neurologic symptoms typically within 6 months of start of therapy is a known complication associated with chelation therapy for WD. […] Neurologic AESI for Study 301 were considered as all AEs in the Medical Dictionary for Regulatory Activities (MedDRA) System Organ Class (SOC) “Nervous system disorders” or any other AE judged by the Investigator as an AESI.
# [2] = Hematological AEs, Primary Evaluation Period, Safety Set, BC-TTM N = 137, SoC N = 70
# [3] = Primary Evaluation Period, 48 Weeks, BC-TTM N = 137, SoC N = 70
# [4] = Primary Evaluation Period, Safety Set, BC-TTM N = 137, SoC N = 70
# [5] = Study 301, Primary Evaluation Period
# Excerpt for albumin levels: Across the 301, 201, and 205 studies, 102 participants had cirrhosis at baseline.
substance,measurement,setting,value
Bis-choline tetrathiomolybdate [BC-TTM],Albumin Level,"albumin levels; Study 201 (normal 33-49), Participant 9, Baseline",29 mg/dL
same,Albumin Level,"albumin levels; Study 201 (normal 33-49), Participant 9, Week 48",45 mg/dL
same,Albumin Level,"albumin levels; Study 201 (normal 33-49), Participant 9, Week 150, early termination",46 mg/dL
same,Albumin Level,"albumin levels; Study 201 (normal 33-49), Participant 10, Baseline",29 mg/dL
same,Albumin Level,"albumin levels; Study 201 (normal 33-49), Participant 10, Week 48",40 mg/dL
same,Albumin Level,"albumin levels; Study 201 (normal 33-49), Participant 10, Week 98",40 mg/dL
same,Albumin Level,"albumin levels; Study 201 (normal 33-49), Participant 10, Week 163, early termination",39 mg/dL
same,Albumin Level,"albumin levels; Study 201 (normal 33-49), Participant 11, Baseline",31 mg/dL
same,Albumin Level,"albumin levels; Study 201 (normal 33-49), Participant 11, Week 48",44 mg/dL
same,Albumin Level,"albumin levels; Study 201 (normal 33-49), Participant 11, Week 98",46 mg/dL
same,Albumin Level,"albumin levels; Study 201 (normal 33-49), Participant 11, Week 150",44 mg/dL
same,Albumin Level,"albumin levels; Study 205 (normal 35-55), Participant 12, Baseline",36 mg/dL
same,Albumin Level,"albumin levels; Study 205 (normal 35-55), Participant 12, Day 43",33 mg/dL
same,Albumin Level,"albumin levels; Study 205 (normal 35-55), Participant 12, Day 57",30 mg/dL
same,Albumin Level,"albumin levels; Study 205 (normal 35-55), Participant 12, Day 169",34 mg/dL
same,Albumin Level,"albumin levels; Study 205 (normal 35-55), Participant 12, Day 253",34 mg/dL
same,Albumin Level,"albumin levels; Study 205 (normal 35-55), Participant 12, Day 337, early termination",37 mg/dL
same,Albumin Level,"albumin levels; Study 205 (normal 35-55), Participant 13, Baseline",45 mg/dL
same,Albumin Level,"albumin levels; Study 205 (normal 35-55), Participant 13, Day 345",27 mg/dL
same,Albumin Level,"albumin levels; Study 301 (normal 35-55), Participant 1, Baseline",33 mg/dL
same,Albumin Level,"albumin levels; Study 301 (normal 35-55), Participant 1, Week 48",47 mg/dL
same,Albumin Level,"albumin levels; Study 301 (normal 35-55), Participant 1, Week 96",48 mg/dL
same,Albumin Level,"albumin levels; Study 301 (normal 35-55), Participant 2, Baseline",37 mg/dL
same,Albumin Level,"albumin levels; Study 301 (normal 35-55), Participant 2, Week 48",34 mg/dL
same,Albumin Level,"albumin levels; Study 301 (normal 35-55), Participant 2, Week 60, early termination",25 mg/dL
same,Albumin Level,"albumin levels; Study 301 (normal 35-55), Participant 3, Baseline",34 mg/dL
same,Albumin Level,"albumin levels; Study 301 (normal 35-55), Participant 3, Week 48",36 mg/dL
same,Albumin Level,"albumin levels; Study 301 (normal 35-55), Participant 3, Week 60",34 mg/dL
same,Albumin Level,"albumin levels; Study 301 (normal 35-55), Participant 4, Baseline",28 mg/dL
same,Albumin Level,"albumin levels; Study 301 (normal 35-55), Participant 4, Week 48",31 mg/dL
same,Albumin Level,"albumin levels; Study 301 (normal 35-55), Participant 5, Baseline",32 mg/dL
same,Albumin Level,"albumin levels; Study 301 (normal 35-55), Participant 5, Week 48",37 mg/dL
same,Albumin Level,"albumin levels; Study 301 (normal 35-55), Participant 5, Week 96",37 mg/dL
same,Albumin Level,"albumin levels; Study 301 (normal 35-55), Participant 6, Baseline",29 mg/dL
same,Albumin Level,"albumin levels; Study 301 (normal 35-55), Participant 6, Week 24",35 mg/dL
same,Albumin Level,"albumin levels; Study 301 (normal 35-55), Participant 6, Week 48",42 mg/dL
same,Albumin Level,"albumin levels; Study 301 (normal 35-55), Participant 6, Week 96",40 mg/dL
same,Albumin Level,"albumin levels; Study 301 (normal 35-55), Participant 7, Baseline (Week 48 Extension Day 1)",42 mg/dL
same,Albumin Level,"albumin levels; Study 301 (normal 35-55), Participant 7, Week 8",37 mg/dL
same,Albumin Level,"albumin levels; Study 301 (normal 35-55), Participant 7, Week 24",36 mg/dL
same,Albumin Level,"albumin levels; Study 301 (normal 35-55), Participant 7, Week 30",35 mg/dL
same,Albumin Level,"albumin levels; Study 301 (normal 35-55), Participant 7, Week 48",35 mg/dL
same,Albumin Level,"albumin levels; Study 301 (normal 35-55), Participant 7, Week 144",37 mg/dL
same,Albumin Level,"albumin levels; Study 301 (normal 35-55), Participant 8, Baseline (Week 48 Extension Day 1)",42 mg/dL
same,Albumin Level,"albumin levels; Study 301 (normal 35-55), Participant 8, Week 120, early termination",32 mg/dL
same,participants with cirrhosis at baseline who experienced changes in albumin levels,"albumin levels; of 102, Studies 301, 201, 205",13 participants
same,participants with cirrhosis at baseline whose albumin levels remained stable,"albumin levels; of 102, Studies 301, 201, 205",89 participants
same,participants with cirrhosis at baseline who maintained liver function (albumin levels),albumin levels; of 102 participants,87%
same,cirrhotic participants whose albumin levels returned to the normal range,albumin levels; of the 13 with changes in liver function,7 participants
same,"Anemia, E events",[1]; [2],7
same,"Anemia, N participants",[1]; [2],6
same,"Anemia, participants (%)",[1]; [2],4.4%
same,"Leukopenia, E events",[1]; [2],3
same,"Leukopenia, N participants",[1]; [2],2
same,"Leukopenia, participants (%)",[1]; [2],1.5%
same,"Neutropenia, E events",[1]; [2],6
same,"Neutropenia, N participants",[1]; [2],6
same,"Neutropenia, participants (%)",[1]; [2],4.4%
same,"Neutrophil count decreased, E events",[1]; [2],4
same,"Neutrophil count decreased, N participants",[1]; [2],2
same,"Neutrophil count decreased, participants (%)",[1]; [2],1.5%
same,"Thrombocytopenia, E events",[1]; [2],2
same,"Thrombocytopenia, N participants",[1]; [2],1
same,"Thrombocytopenia, participants (%)",[1]; [2],0.7%
same,"Alanine aminotransferase increased, N participants",[1]; [3],20
same,"Alanine aminotransferase increased, participants (%)",[1]; [3],14.6%
same,"Aspartate aminotransferase increased, N participants",[1]; [3],4
same,"Aspartate aminotransferase increased, participants (%)",[1]; [3],2.9%
same,"Ear and labyrinth disorders, N participants",[1]; [3],7
same,"Ear and labyrinth disorders, participants (%)",[1]; [3],5.1%
same,"Fatigue, N participants",[1]; [3],13
same,"Fatigue, participants (%)",[1]; [3],9.5%
same,"Gamma-glutamyltransferase increased, N participants",[1]; [3],3
same,"Gamma-glutamyltransferase increased, participants (%)",[1]; [3],2.2%
same,"Hepatic enzyme increased, N participants",[1]; [3],3
same,"Hepatic enzyme increased, participants (%)",[1]; [3],2.2%
same,"Hepatobiliary disorders, N participants",[1]; [3],9
same,"Hepatobiliary disorders, participants (%)",[1]; [3],6.6%
same,"Investigations, N participants",[1]; [3],46
same,"Investigations, participants (%)",[1]; [3],33.6%
same,"Nervous system disorders, N participants",[1]; [3],47
same,"Nervous system disorders, participants (%)",[1]; [3],34.3%
same,"Neutrophil count decreased, N participants",[1]; [3],2
same,"Neutrophil count decreased, participants (%)",[1]; [3],1.5%
same,"Pruritus, N participants",[1]; [3],5
same,"Pruritus, participants (%)",[1]; [3],3.6%
same,"Psychiatric disorders, N participants",[1]; [3],26
same,"Psychiatric disorders, participants (%)",[1]; [3],19.0%
same,"Pyrexia, N participants",[1]; [3],8
same,"Pyrexia, participants (%)",[1]; [3],5.8%
same,"Rash, N participants",[1]; [3],9
same,"Rash, participants (%)",[1]; [3],6.6%
same,"Skin and subcutaneous tissue disorders, N participants",[1]; [3],30
same,"Skin and subcutaneous tissue disorders, participants (%)",[1]; [3],21.9%
same,"ALT increased, E events",[1]; [4],25
same,"ALT increased, N participants",[1]; [4],20
same,"ALT increased, participants (%)",[1]; [4],14.6%
same,"AST increased, E events",[1]; [4],4
same,"AST increased, N participants",[1]; [4],4
same,"AST increased, participants (%)",[1]; [4],2.9%
same,"GGT increased, E events",[1]; [4],3
same,"GGT increased, N participants",[1]; [4],3
same,"GGT increased, participants (%)",[1]; [4],2.2%
same,"Hepatic enzyme increased, E events",[1]; [4],5
same,"Hepatic enzyme increased, N participants",[1]; [4],3
same,"Hepatic enzyme increased, participants (%)",[1]; [4],2.2%
same,"Hepatic function abnormal, E events",[1]; [4],3
same,"Hepatic function abnormal, N participants",[1]; [4],3
same,"Hepatic function abnormal, participants (%)",[1]; [4],2.2%
same,"Hyperbilirubinemia, E events",[1]; [4],1
same,"Hyperbilirubinemia, N participants",[1]; [4],1
same,"Hyperbilirubinemia, participants (%)",[1]; [4],0.7%
same,"Hypertransaminasemia, E events",[1]; [4],4
same,"Hypertransaminasemia, N participants",[1]; [4],2
same,"Hypertransaminasemia, participants (%)",[1]; [4],1.5%
same,"Jaundice, E events",[1]; [4],1
same,"Jaundice, N participants",[1]; [4],1
same,"Jaundice, participants (%)",[1]; [4],0.7%
same,"LFT abnormal, E events",[1]; [4],2
same,"LFT abnormal, N participants",[1]; [4],2
same,"LFT abnormal, participants (%)",[1]; [4],1.5%
same,"LFT increased, E events",[1]; [4],4
same,"LFT increased, N participants",[1]; [4],4
same,"LFT increased, participants (%)",[1]; [4],2.9%
same,"Liver disorder, E events",[1]; [4],1
same,"Liver disorder, N participants",[1]; [4],1
same,"Liver disorder, participants (%)",[1]; [4],0.7%
same,ALT increased as share of treatment-emergent adverse events (25/577),[1]; Study 301,4.3%
same,incidence of AE ALT increased,[1]; Study 301,14.6%
same,"incidence of SAEs, Nervous system disorders",[1]; Study 301,4.4%
same,"incidence of hematologic AEs, BC-TTM versus SoC",[1]; Study 301,similar
same,"participants with Grade 4 AEs, Nervous system disorders",[1]; Study 301,1 participant
same,"participants with Grade 5 AEs, Nervous system disorders",[1]; Study 301,1 participant
same,"participants with highest severity Grade 1 AEs, Nervous system disorders",[1]; Study 301,24.1%
same,"participants with highest severity Grade 2 AEs, Nervous system disorders",[1]; Study 301,13.9%
same,participants with neurologic AESI in the SOC Psychiatric disorders,[1]; Study 301,3.6%
same,AEs in SOC Ear and labyrinth disorders,[1]; [5],5.1%
same,AEs in SOC Hepatobiliary disorders,[1]; [5],6.6%
same,AEs in SOC Investigations,[1]; [5],33.6%
same,AEs in SOC Psychiatric disorders,[1]; [5],19.0%
same,AEs in SOC Skin and subcutaneous tissue disorders,[1]; [5],21.9%
same,incidence of AEs in the SOC Nervous system disorders,[1]; [5],34.3%
same,incidence of headache,[1]; [5],8.0%
same,incidence of tremor,[1]; [5],7.3%
same,participants discontinued due to AE of anemia (Grade 1),[1]; clinical program for BC-TTM,1 participant
same,participants discontinued due to AE of neutropenia (Grade 2),[1]; clinical program for BC-TTM,1 participant
same,overall safety profile,[1]; participants with WD,acceptable safety profile and is generally well-tolerated
